From patent US9303045B2, “5-HT3 receptor antagonists” (Takeda Pharmaceutical Company Limited, priority 2013, dated 2016) come the findings set out here.

The assay deals with 5HT3a receptor expressed in HEK-293T cells (Homo sapiens (Human), UniProt P46098). Description: Inhibition of Ca flux activity of 5HT3 in vitro assay. Type of assay: cell-based. The settings on record: calcium flux, 5HT 216 nM, approximate values. The method in brief:
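HEK-293T cells transiently transfected with human 5HT3a, loaded 1 hour at 37° C with calcium dye in HBSS/20 mM HEPES, preincubated with compound (10^−7 to 10^−10, half-log) 10 minutes at room temperature.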

pIC50: −log10 of the molar value. Structures can show the parent of a compound that is named as a salt.

5HT3a receptor expressed in HEK-293T cells, sequence (P46098 24-478): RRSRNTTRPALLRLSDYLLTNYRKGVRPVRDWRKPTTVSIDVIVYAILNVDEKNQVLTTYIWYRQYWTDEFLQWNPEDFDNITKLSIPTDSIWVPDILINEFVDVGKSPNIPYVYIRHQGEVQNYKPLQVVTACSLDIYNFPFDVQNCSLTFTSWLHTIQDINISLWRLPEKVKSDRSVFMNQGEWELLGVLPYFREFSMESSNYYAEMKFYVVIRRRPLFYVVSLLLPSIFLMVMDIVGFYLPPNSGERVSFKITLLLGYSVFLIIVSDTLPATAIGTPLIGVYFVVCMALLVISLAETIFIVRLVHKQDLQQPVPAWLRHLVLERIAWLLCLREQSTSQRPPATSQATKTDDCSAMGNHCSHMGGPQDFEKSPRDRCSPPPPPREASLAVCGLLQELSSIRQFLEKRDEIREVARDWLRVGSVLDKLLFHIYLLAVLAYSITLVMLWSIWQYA

One may read the pIC50 as the negative decadic logarithm of the IC50, by convention in mol/L. Regarding `CN1C2COCC1CC(NC(=O)c1nn(-c3cncs3)c3ccccc13)C2` [Example 165, N-((1R,5S,7s)-9-methyl-3-oxa-9-azabicyclo[3.3.1]nonan-7-yl)-1-(thiazol-5-yl)-1H-indazole-3-carboxamide, 2,2,2-trifluoroacetic acid salt], the pIC50 was 8.81.

`Cn1ccc(-n2cc(C(=O)O[C@H]3C[C@H]4COC[C@@H](C3)N4)c3ccccc32)cc1=O` [Example 168, 1R,5S,7s)-3-oxa-9-azabicyclo[3.3.1]nonan-7-yl 1-(1-methyl-2-oxo-1,2-dihydropyridin-4-yl)-1H-indole-3-carboxylate, 2,2,2-trifluoroacetic acid salt]: the pIC50 was 8.93.

For `CN1C2COCC1CC(OC(=O)c1cn(-c3ccc(O)nn3)c3ccccc13)C2` [Example 169, (1R,5S,7s)-9-methyl-3-oxa-9-azabicyclo[3.3.1]nonan-7-yl 1-(6-hydroxypyridazin-3-yl)-1H-indole-3-carboxylate, 2,2,2-trifluoroacetic acid salt], the pIC50 was 9.22.

Take `N#Cc1ccccc1-n1cc(C(=O)O[C@H]2C[C@H]3COC[C@@H](C2)N3)c2ccccc21` [Example 171, (1R,5S,7s)-3-oxa-9-azabicyclo[3.3.1]nonan-7-yl 1-(2-cyanophenyl)-1H-indole-3-carboxylate, 2,2,2-trifluoroacetic acid salt]: the pIC50 is 8.96.

For the compound `N#Cc1cccc(-n2cc(C(=O)OC3CC4COCC(C3)N4)c3ccccc32)c1` [Example 172, (1R,5S,7s)-3-oxa-9-azabicyclo[3.3.1]nonan-7-yl 1-(3-cyanophenyl)-1H-indole-3-carboxylate, 2,2,2-trifluoroacetic acid salt], the pIC50 was 8.54.

In the case of `CN1C2COCC1CC(NC(=O)c1cn(-c3ccccc3)c3ccccc13)C2` [Example 174, N-((1R,5S,7s)-9-methyl-3-oxa-9-azabicyclo[3.3.1]nonan-7-yl)-1-phenyl-1H-indole-3-carboxamide, 2,2,2-trifluoroacetic acid salt], the pIC50 is 8.69.

Turning to `O=C(O[C@H]1C[C@H]2COC[C@@H](C1)N2)c1cn(-c2ncco2)c2ccccc12` [Example 177, (1R,5S,7s)-3-oxa-9-azabicyclo[3.3.1]nonan-7-yl 1-(oxazol-2-yl)-1H-indole-3-carboxylate, 2,2,2-trifluoroacetic acid salt], the pIC50 was 8.49.

For the compound `N#Cc1ccc(-n2cc(C(=O)O[C@H]3C[C@H]4COC[C@@H](C3)N4)c3ccccc32)cc1` [Example 180, (1R,5S,7s)-3-oxa-9-azabicyclo[3.3.1]nonan-7-yl 1-(4-cyanophenyl)-1H-indole-3-carboxylate, 2,2,2-trifluoroacetic acid salt], the pIC50 is 8.23.

For the compound `CN(C(=O)c1cn(-c2cnsc2)c2ccccc12)[C@H]1C[C@H]2COC[C@@H](C1)N2` [Example 185, N-((1R,5S,7S)-3-oxa-9-azabicyclo[3.3.1]nonan-7-yl)-1-(isothiazol-4-yl)-N-methyl-1H-indole-3-carboxamide], the pIC50 is 8.51.

Turning to `CN(C(=O)c1cn(-c2cnsc2)c2ccccc12)C1C[C@H]2COC[C@@H](C1)N2C` (stereo partly drawn) [Example 186, 1-(isothiazol-4-yl)-N-methyl-N-((1R,5S,7S)-9-methyl-3-oxa-9-azabicyclo[3.3.1]nonan-7-yl)-1H-indole-3-carboxamide], the pIC50 is 8.82.

In the case of `CN1[C@@H]2COC[C@H]1CC(NC(=O)c1cn(-c3ccnnc3)c3ccccc13)C2` (stereo partly drawn) [Example 190, N-((1R,5S,7S)-9-methyl-3-oxa-9-azabicyclo[3.3.1]nonan-7-yl)-1-(pyridazin-4-yl)-1H-indole-3-carboxamide], the negative-log IC50 (pIC50) was 9.12.

Turning to “(1R,3R,5S)-8-methyl-8-azabicyclo[3.2.1]octan-3-yl 1-(2,2-difluoroethyl)-1H-pyrrolo[2,3-b]pyridine-3-carboxylate 2,2,2-trifluoroacetate [Example 1]”, the negative-log IC50 (pIC50) is 8.67.

On to “(1R,3R,5S)-8-methyl-8-azabicyclo[3.2.1]octan-3-yl 2-chloro-1-(2,2-difluoroethyl)-1H-indole-3-carboxylate 2,2,2-trifluoroacetate [Example 4]”, for which the negative-log IC50 (pIC50) was 8.85.

On to “(1R,3R,5S)-8-methyl-8-azabicyclo[3.2.1]octan-3-yl 2-chloro-1-(methylsulfonyl)-1H-indole-3-carboxylate 2,2,2-trifluoroacetate [Example 6]”, for which the pIC50 is 8.63.

For “(1R,3R,5S)-8-methyl-8-azabicyclo[3.2.1]octan-3-yl 3,4-dihydro-2H-[1,3]oxazino[3,2-a]indole-10-carboxylate 2,2,2-trifluoroacetate [Example 19]”, the pIC50 is 8.11.

On to “(1R,5S,7S)-3-Oxa-9-azabicyclo[3.3.1]nonan-7-yl 1-(2,2-difluoroethyl)-5-fluoro-1H-indole-3-carboxylate 2,2,2-trifluoroacetic acid [Example 13]”, for which the pIC50 is 9.03.

For the compound “(1R,5S,7S)-9-methyl-3-oxa-9-azabicyclo[3.3.1]nonan-7-yl 1-(2,2-difluoroethyl)-1H-pyrrolo[2,3-b]pyridine-3-carboxylate 2,2,2-trifluoroacetate [Example 14]”, the pIC50 is 8.43.

As for “(1R,5S,7S)-9-methyl-3-oxa-9-azabicyclo[3.3.1]nonan-7-yl 1-(5-fluoropyrazin-2-yl)-1H-indole-3-carboxylate, 2,2,2-trifluoroacetic acid salt [Example 33]”, the pIC50 was 7.84.

Consider “(1R,5S,7S)-9-methyl-3-oxa-9-azabicyclo[3.3.1]nonan-7-yl 1-(isothiazol-3-yl)-1H-indole-3-carboxylate, 2,2,2-trifluoroacetic acid salt [Example 34]”, for which the pIC50 is 9.13.

On to “(1R,5S,7s)-3-oxa-9- azabicyclo[3.3.1]nonan- 7-yl 1-(isothiazol-3-yl)- 1H-indole-3- carboxamide, 2,2,2- trifluoroacetic acid salt [Example 145]”, for which the pIC50 was 8.57.

In the case of “(1R,5S,7s)-3-oxa-9- azabicyclo[3.3.1]nonan- 7-yl 1-(isothiazol-5-yl)- 1H-indole-3- carboxamide, 2,2,2- trifluoroacetic acid salt [Example 155]”, the pIC50 is 8.90.

With “(1R,5S,7s)-3-oxa-9-azabicyclo[3.3.1]nonan-7-yl 1-(2-cyanophenyl)-1H-indole-3-carboxylate, 2,2,2-trifluoroacetic acid salt [Example 28]”, the pIC50 is 8.97.

On to “(1R,5S,7s)-3-oxa-9-azabicyclo[3.3.1]nonan-7-yl 1-(pyrazin-2-yl)-1H-indole-3-carboxylate, 2,2,2-trifluoroacetic acid salt [Example 27]”, for which the pIC50 was 9.05.

For the compound “(1R,5S,7s)-9-methyl-3-oxa-9-azabicyclo[3.3.1]nonan-7-yl 1-(6-fluoropyridazin-3-yl)-1H-indole-3-carboxylate [Example 25]”, the pIC50 is 8.41.

Take “(1R,5S,7s)-9-methyl-3-oxa-9-azabicyclo[3.3.1]nonan-7-yl 1-(6-hydroxypyridazin-3-yl)-1H-indole-3-carboxylate, 2,2,2-trifluoroacetic acid salt [Example 32]”: the negative-log IC50 (pIC50) is 8.86.

Regarding “N-((1R,5S,7S)-3-oxa-9-azabicyclo[3.3.1]nonan-7-yl)-5-fluoro-1-(2,2,2-trifluoroethyl)-1H-indole-3-carboxamide 2,2,2-trifluoroacetate [Example 17]”, the negative-log IC50 (pIC50) is 8.36.
